Assay results published in US8153593B2, “Transglutaminase inhibitors and methods of use thereof” (The Board of Trustees of the Leland Stanford Junior …, priority 2003, dated 2012).

Target: T1, recombinant human tissue transglutaminase (Homo sapiens, UniProt P21980)
T1 construct: made in house
T1 sequence (P21980 1-687): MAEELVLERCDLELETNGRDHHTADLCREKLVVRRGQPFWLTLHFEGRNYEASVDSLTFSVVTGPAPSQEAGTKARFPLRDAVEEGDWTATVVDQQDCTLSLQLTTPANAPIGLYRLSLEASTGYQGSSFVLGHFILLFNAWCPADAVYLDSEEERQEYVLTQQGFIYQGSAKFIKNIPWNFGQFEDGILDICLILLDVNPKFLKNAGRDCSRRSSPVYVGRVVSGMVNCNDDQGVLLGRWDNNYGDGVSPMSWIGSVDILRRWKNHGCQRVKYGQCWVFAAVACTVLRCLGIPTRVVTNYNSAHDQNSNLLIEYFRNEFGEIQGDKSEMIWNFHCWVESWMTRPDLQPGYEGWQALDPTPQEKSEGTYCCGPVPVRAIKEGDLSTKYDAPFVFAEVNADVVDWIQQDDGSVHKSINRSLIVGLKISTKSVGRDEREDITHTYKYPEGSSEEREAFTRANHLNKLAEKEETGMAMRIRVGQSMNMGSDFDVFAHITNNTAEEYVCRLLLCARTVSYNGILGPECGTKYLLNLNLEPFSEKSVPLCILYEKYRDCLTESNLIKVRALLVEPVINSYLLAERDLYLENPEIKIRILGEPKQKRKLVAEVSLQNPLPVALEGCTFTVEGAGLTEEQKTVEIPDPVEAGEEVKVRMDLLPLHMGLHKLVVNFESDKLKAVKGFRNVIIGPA
Assay: tTGase inhibition assay, residual activity by glutamate dehydrogenase coupled assay
Assay type: biochemical

Compound	Ki (Table 3) [µM]	kinh (Table 3) [min⁻¹]	kinh/KI (Table 3)	Ki (dihydroisoxazoles, Table 1) [µM]	kinh (dihydroisoxazoles, Table 1) [min⁻¹]	kinh/Ki (dihydroisoxazoles, Table 1) [min^−1M^−1]
O=C(NCC1CC(Br)=NO1)[C@@H]1CCCN1C(=O)OCc1cnc2ccccc2c1 (stereo in doubt) [ERW1041E, 2-[(3-Bromo-4,5-dihydro-isoxazol-5-ylmethyl)-carbamoyl]-pyrrolidine-1-carboxylic acid quinolin-3-ylmethyl ester]	953	2.856	3000 /Mmin			
COC(=O)[C@H](CCC(=O)NCC1CC(Br)=NO1)NC(=O)OCc1ccccc1 (stereo partly drawn) [Compound 50, (S)-2-Benzyloxycarbonylamino-4-[(3-bromo-4,5-dihydro-isoxazol-5-ylmethyl)-carbamoyl]-butyric acid methyl ester]				1600	0.32	200
COC(=O)[C@H](CC(=O)NCC1CC(Br)=NO1)NC(=O)OCc1ccccc1 (stereo partly drawn) [Compound 51, (S)-2-Benzyloxycarbonylamino-N-(3-bromo-4,5-dihydro-isoxazol-5-ylmethyl)-succinamic acid methyl ester]				870	0.43	490
O=C(N[C@@H](Cc1ccccc1)C(=O)OCC1CC(Br)=NO1)OCc1ccccc1 (stereo partly drawn) [Compound 52, (S)-2-Benzyloxycarbonylamino-3-phenyl-propionic acid 3-bromo-4,5-dihydro-isoxazol-5-ylmethyl ester]				1300	0.32	230
C[C@H](NC(=O)OCc1ccccc1)C(=O)NCC1CC(Br)=NO1 (stereo partly drawn) [Compound 53, {(S)-1-[(3-Bromo-4,5-dihydro-isoxazol-5-ylmethyl)-carbamoyl]-ethyl}-carbamic acid benzyl ester]				910	0.41	450
CC(=O)N[C@@H](Cc1ccccc1)C(=O)NCC1CC(Br)=NO1 (stereo partly drawn) [Compound 54, (S)-2-Acetylamino-N-(3-bromo-4,5-dihydro-isoxazol-5-ylmethyl)-3-phenyl-propionamide]				2700	0.60	220
O=C(N[C@H](Cc1ccccc1)C(=O)NCC1CC(Br)=NO1)OCc1ccccc1 (stereo partly drawn) [Compound 55, {(R)-1-[(3-Bromo-4,5-dihydro-isoxazol-5-ylmethyl)-carbamoyl]-2-phenyl-ethyl}-carbamic acid benzyl ester]					0.29	
O=C(C[C@H](NC(=O)OCc1ccccc1)C(=O)NCC1CC(Br)=NO1)NCc1ccccc1 (stereo partly drawn) [Compound 56, {(S)-2-Benzylcarbamoyl-1-[(3-bromo-4,5-dihydro-isoxazol-5-ylmethyl)-carbamoyl]-ethyl}-carbamic acid benzyl ester]				240	0.54	2300
O=C(N[C@@H](Cc1c[nH]c2ccccc12)C(=O)NCC1CC(Br)=NO1)OCc1ccccc1 (stereo partly drawn) [Compound 57, [(S)-1-[(3-Bromo-4,5-dihydro-isoxazol-5-ylmethyl)-carbamoyl]-2-(1H-indol-3-yl)-ethyl]-carbamic acid benzyl ester]					0.78	2500
CN(CC1CC(Br)=NO1)C(=O)[C@H](Cc1ccccc1)NC(=O)OCc1ccccc1 (stereo partly drawn) [Compound 58, {(S)-1-[(3-Bromo-4,5-dihydro-isoxazol-5-ylmethyl)-methyl-carbamoyl]-2-phenyl-ethyl}-carbamic acid benzyl ester]				260	0.19	730
O=C(NCC1CC(Br)=NO1)Nc1ccccc1 (stereo not drawn) [Compound 60, 1-(3-Bromo-4,5-dihydro-isoxazol-5-ylmethyl)-3-phenyl-urea]					0.89	810
O=C(NCC1CC(Br)=NO1)Nc1cc(C(F)(F)F)ccc1Cl (stereo not drawn) [Compound 61, 1-(3-Bromo-4,5-dihydro-isoxazol-5-ylmethyl)-3-(2-chloro-5-trifluoromethyl-phenyl)-urea]					0.95	1000
O=C(NCC1CC(Br)=NO1)Nc1ccc(Cl)cc1C(F)(F)F (stereo not drawn) [Compound 62, 1-(3-Bromo-4,5-dihydro-isoxazol-5-ylmethyl)-3-(4-chloro-2-trifluoromethyl-phenyl)-urea]					1.1	850
O=C(NCC1CC(Br)=NO1)Nc1ccc(F)cc1 (stereo not drawn) [Compound 63, 1-(3-Bromo-4,5-dihydro-isoxazol-5-ylmethyl)-3-(4-fluoro-phenyl)-urea]					1.0	770
Cc1ccc(C)c(NC(=O)NCC2CC(Br)=NO2)c1 (stereo not drawn) [Compound 64, 1-(3-Bromo-4,5-dihydro-isoxazol-5-ylmethyl)-3-(2,5-dimethyl-phenyl)-urea]					0.97	1000
O=C(NC(Cc1c[nH]c2ccc(F)cc12)C(=O)NCC1CC(Br)=NO1)OCc1ccccc1 (stereo not drawn) [ERW903, [1-[(3-Bromo-4,5-dihydro-isoxazol-5-ylmethyl)-carbamoyl]-2-(5-fluoro-1H-indol-3-yl)-ethyl]-carbamic acid benzyl ester]			<1200 >1200 <1200 <1200 /Mmin			
O=C(NC(Cc1ccc(O)cc1)C(=O)NCC1CC(Br)=NO1)OCc1cnc2ccccc2c1 (stereo not drawn) [ERW1041A, [1-[(3-Bromo-4,5-dihydro-isoxazol-5-ylmethyl)-carbamoyl]-2-(4-hydroxy-phenyl)-ethyl]-carbamic acid quinolin-3-ylmethyl ester]	63.1	0.184	2900 /Mmin			
O=C(NC(Cc1c[nH]c2ccc(O)cc12)C(=O)NCC1CC(Br)=NO1)OCc1cnc2ccccc2c1 (stereo not drawn) [ERW1041B, [1-[(3-Bromo-4,5-dihydro-isoxazol-5-ylmethyl)-carbamoyl]-2-(5-hydroxy-1H-indol-3-yl)-ethyl]-carbamic acid quinolin-3-ylmethyl ester]	1380	2.57	1850 /Mmin			
COc1ccc2[nH]cc(CC(NC(=O)OCc3cnc4ccccc4c3)C(=O)NCC3CC(Br)=NO3)c2c1 (stereo not drawn) [ERW1041D, [1-[(3-Bromo-4,5-dihydro-isoxazol-5-ylmethyl)-carbamoyl]-2-(5-methoxy-1H-indol-3-yl)-ethyl]-carbamic acid quinolin-3-ylmethyl ester]	173	0.283	1600 /Mmin			
O=C(NCC1CC(Br)=NO1)C1Cc2ccccc2N1C(=O)OCc1ccccc1 (stereo not drawn) [ERW1045, 2-[(3-Bromo-4,5-dihydro-isoxazol-5-ylmethyl)-carbamoyl]-2,3-dihydro-indole-1-carboxylic acid benzyl ester]			<1200 /Mmin			
O=C(NC(Cc1c[nH]c2ccc(F)cc12)C(=O)NCC1CC(Br)=NO1)OCc1cnc2ccccc2c1 (stereo not drawn) [ERW1069, [1-[(3-Bromo-4,5-dihydro-isoxazol-5-ylmethyl)-carbamoyl]-2-(5-fluoro-1H-indol-3-yl)-ethyl]-carbamic acid quinolin-3-ylmethyl ester]	4.9	0.1314	26800 /Mmin			
